Measurements: patent US6815546B2, “Analogues of camptothecin, their use as medicaments and the pharmaceutical compositions containing them” (Societe de Recherches et d'Applications Scientifiques …, priority 1995, dated 2004)
pIC50: −log10 of the molar value.

System: Adenocarcinoma HT29 cells from the human colon
Assay: Adenocarcinoma HT29 cell proliferation, WST1 (compounds in DMA)
Assay type: cell-based
Details: final DMA 0.1% (v/v)
Description: c. Adenocarcinoma HT29 cells from the human colon are cultured in a single layer at 37° in a humidified atmosphere containing 95% of air and 5% of CO2, in a modified essential Earle's medium at 4.5 g/l (Gibco, Paisley, United Kingdom); completed with 10% of inactivated foetal calf serum, 2 mM of glutamine, and 50 μg/ml of gentamycin (Gibco, Paisley, United Kingdom).
Approximately 2000 cells are seeded with the culture medium above in the wells of a microplate (96 wells, flat-bottomed) and incubated for 24 hours. Solutions in N,N-dimethyl-acetamide (DMA) of each of the examples of the invention, diluted in the culture medium so that the final concentration of DMA is 0.1% (v/v), are added to the plate cultures in order to obtain final concentration ranges from 1×10^−13 to 1×10^−5 M, and the cells are incubated for 72 hours.
The WST1 staining reagent, (Boehringer Mannheim, Germany) is then added to each well at a final concentration of 9%, and the cells are incubated for 2 hours at 37° C. This stage allows the mitochondrial deshydrogenase of the living cells to convert WST1 orange tetrazolium salt into crimson formazan. The resulting stained solutions are quantified by dual-beam detection ([…]) using a multi-cuvette scanning spectrophotometer.
The results shown in the following table III C) are expressed in terms of inhibitory concentration at 50% (IC50, in nM), accompanied by a confidence interval.

SMILES	pIC50 (72 hours)	pIC50 (Homo sapiens, HT-29, 72 hours)
CC[C@@]1(O)CC(=O)OCc2c1cc1n(c2=O)Cc2c-1nc1cc(F)ccc1c2-c1ccc(N(C)C)cc1 [Example 167, (5R)-12-(4-dimethylaminophenyl)-5-ethyl-9-fluoro-5-hydroxy-4,5,13,15-tetrahydro-1H,3H-oxepino[3′,4′:6,7]indolizino [1,2-b]quinoleine-3,15-dione]	7.89	–
CCOCCc1c2c(nc3cc(F)cc(F)c13)-c1cc3c(c(=O)n1C2)COC(=O)C[C@]3(O)CC [Example 170, (5R)-12-(2-ethoxyethyl)-5-ethyl-9,11-difluoro-5-hydroxy-4,5,13,15-tetrahydro-1H,3H-oxepino[3′,4′:6,7]indolizino[1,2-b]quinoleine-3,15-dione]	9.07	–
CCCc1c2c(nc3cc(F)c(F)cc13)-c1cc3c(c(=O)n1C2)COC(=O)C[C@]3(O)CC [Example 97, (5R)-5-ethyl-9,10-difluoro-5-hydroxy-12-propyl-4,5,13,15-tetrahydro-1H,3H-oxepino[3′,4′:6,7]indolizino[1,2-b]quinoline-3,15-dione]	–	7.96
CC[C@@]1(O)CC(=O)OCc2c1cc1n(c2=O)Cc2c-1nc1cc(F)ccc1c2CC(C)C [Example 162, (5R)-5-ethyl-9-fluoro-5-hydroxy-12-isobutyl-4,5,13,15-tetrahydro-1H,3H-oxepino[3′,4′:6,7]indolizino[1,2-b]quinoleine-3,15-dione]	7.92	–
CC[C@@]1(O)CC(=O)OCc2c1cc1n(c2=O)Cc2c-1nc1cc(F)ccc1c2-c1ccc(F)cc1 [Example 115, (5R)-5-ethyl-9-fluoro-12-(4-fluorophenyl)-5-hydroxy-4,5,13,15-tetrahydro-1H,3H-oxepino[3′,4′:6,7]indolizino[1,2-b]quinoline-3,15-dione]	–	9.59
CC[C@@]1(O)CC(=O)OCc2c1cc1n(c2=O)Cc2c-1nc1ccccc1c2CC[Si](C)(C)C [Example 104, (5R)-5-ethyl-5-hydroxy-12-(2-trimethylsilylethyl)-4,5,13,15-tetrahydro-1H,3H-oxepino[3′,4′:6,7]indolizino[1,2-b]quinoline-3,15-dione]	–	8.07
CC[C@@]1(O)CC(=O)OCc2c1cc1n(c2=O)Cc2c-1nc1cc(F)ccc1c2CC(C)(C)C [Example 163, (5R)-5-ethyl-9-fluoro-5-hydroxy-12-neopentyl-4,5,13,15-tetrahydro-1H,3H-oxepino[3′,4′:6,7]indolizino[1,2-b]quinoleine-3,15-dione]	8.22	–
CC[C@@]1(O)CC(=O)OCc2c1cc1n(c2=O)Cc2c-1nc1cc(F)ccc1c2-c1ccc(C(F)(F)F)cc1 [Example 165, (5R)-5-ethyl-9-fluoro-5-hydroxy-12-(4-trifluoromethylphenyl)-4,5,13,15-tetrahydro-1H,3H-oxepino[3′,4′:6,7]indolizino[1,2-b]quinoleine-3,15-dione]	8.77	–
CC[C@@]1(O)CC(=O)OCc2c1cc1n(c2=O)Cc2cc3ccc(F)cc3nc2-1 [Example 84, (5R)-5-ethyl-9-fluoro-5-hydroxy-4,5,13,15-tetrahydro-1H,3H-oxepino[3′,4′:6,7]indolizino[1,2-b]quinoline-3,15-dione]	–	8.60
CC[C@@]1(O)CC(=O)OCc2c1cc1n(c2=O)Cc2cc3c(F)c(F)c(F)cc3nc2-1 [Example 171, (5R)-5-ethyl-9,10,11-trifluoro-5-hydroxy-4,5,13,15-tetrahydro-1H,3H-oxepino[3′,4′:6,7]indolizino[1,2-b]quinoleine-3,15-dione]	8.09	–
CCc1c2c(nc3cc(F)c(F)cc13)-c1cc3c(c(=O)n1C2)COC(=O)C[C@]3(O)CC [Example 98, (5R)-5,12-diethyl-9,10-difluoro-5-hydroxy-4,5,13,15-tetrahydro-1H,3H-oxepino[3′,4′:6,7]indolizino[1,2-b]quinoline-3,15-dione]	–	8.68
CC[C@@]1(O)CC(=O)OCc2c1cc1n(c2=O)Cc2c-1nc1cc(F)ccc1c2CCc1ccccc1 [Example 140, (5R)-5-ethyl-9-fluoro-5-hydroxy-12-phenethyl-4,5,13,15-tetrahydro-1H,3H-oxepino[3′,4′:6,7]indolizino[1,2-b]quinoline-3,15-dione]	–	8.49
CCc1c2c(nc3ccccc13)-c1cc3c(c(=O)n1C2)COC(=O)C[C@]3(O)CC [Example 88, (5R)-5,12-diethyl-5-hydroxy-4,5,13,15-tetrahydro-1H,3H-oxepino[3′,4′:6,7]indolizino[1,2-b]quinoline-3,15-dione]	–	7.92
CC[C@@]1(O)CC(=O)OCc2c1cc1n(c2=O)Cc2c-1nc1ccccc1c2-c1ccc(C)cc1 [Example 91, (5R)-5-ethyl-5-hydroxy-12-(4-methylphenyl)-4,5,13,15-tetrahydro-1H,3H-oxepino[3′,4′:6,7]indolizino[1,2-b]quinoline-3,15-dione]	–	7.96
CC[C@@]1(O)CC(=O)OCc2c1cc1n(c2=O)Cc2c-1nc1cc(F)c(F)cc1c2CC[Si](C)(C)C [Example 99, (5R)-5-ethyl-9,10-difluoro-5-hydroxy-1 2-(2-trimethylsilylethyl)-4,5,13,15-tetrahydro-1H,3H-oxepino[3′,4′:6,7]indolizino[1,2-b]quinoline-3,15-dione]	–	8.30
CCCCc1c2c(nc3ccccc13)-c1cc3c(c(=O)n1C2)COC(=O)C[C@]3(O)CC [Example 87, (5R)-12-butyl-5-ethyl-5-hydroxy-4,5,13,15-tetrahydro-1H,3H-oxepino[3′,4′:6,7]indolizino[1,2-b]quinoline-3,15-dione]	–	7.80
